≈ marks a conversion by molar mass, not a printed value.

Type in all cases: cell-based
The subject of assay [1] is Acinetobacter baumannii (ATCC 17978). The experiment in a line: MIC by broth microdilution. The procedure:
(§1) The antibacterial potency of the test article(s) was measured using the in vitro broth microdilution assay under assay conditions described by the Clinical and Laboratory Standards Institute. […] The test substance was dissolved in 100% DMSO, suspended completely by sonication or vortexing, diluted by 2-fold serial titrations in the same vehicle, for a total of 11 test concentrations. A 4 μL aliquot of each dilution was added to 196 μL of broth medium seeded with the organism suspension in wells of a 96 well plate (bacterial count: 2−8×10^5 colony forming units/mL final). The final volume was 200 μL in each well and the final DMSO concentration was 2 percent. Following incubation for 1 day at 36° C., the test plates were visually examined and wells were scored for growth or complete growth inhibition to define the minimum inhibitory concentration. Each test substance was evaluated in duplicate and the results were reported as the duplicate test values. Vehicle-control and an active reference agent were used as blank and positive controls, respectively. Microorganisms tested were Acinetobacter baumannii (ATCC 17978), Enterococcus faecalis (ATCC 29212), Enterococcus faecium VanA (ATCC 700221), Escherichia coli (ATCC 25922), Escherichia coli efflux defective DEL-tolC (JW5503), Heamophilus influenzae (ATCC 49247), Klebsiella pneumoniae (ATCC 43816), Pseudomonas aeruginosa (ATCC 27853), Pseudomonas aeruginosa MDR (NTUH-974), Staphylococcus aureus (ATCC 29213), Staphylococcus aureus MRSA (ATCC 33591) and Streptococcous pneumoniae (ATCC 46919). H. influenzae was grown in Haemophilus Test Medium and S. pneumoniae was grown in cation adjusted Muller-Hinton Broth II with 5% lysed horse blood. All other microorganisms were grown in cation adjusted Muller-Hinton Broth II.
(§2) The antibacterial potency of the test article(s) was measured using the in vitro broth microdilution assay under assay conditions described by the Clinical and Laboratory Standards Institute. […] The test substance was dissolved in 100% DMSO (unless stated below), suspended completely by sonication or vortexing, diluted by 2-fold serial titrations in the same vehicle, for a total of 11 test concentrations. A 4 μL aliquot of each dilution was added to 196 μL of broth medium seeded with the organism suspension in wells of a 96 well plate (bacterial count: 2−8×10^5 colony forming units/mL final). The final volume was 200 μL in each well and the final DMSO concentration was 2 percent. Following incubation, the test plates were visually examined and wells were scored for growth or complete growth inhibition to define the minimum inhibitory concentration. Each test substance was evaluated in duplicate and the results below are the duplicate test values. Vehicle-control and an active reference agent were used as blank and positive controls, respectively.
(In general: In broth dilution the organism is exposed to a series of concentrations in liquid medium.)

Assay [2] has as its system Escherichia coli (ATCC 25922). The experiment in a line: MIC by broth microdilution. The procedure:
as §1, §2

In assay [3] the test system is Escherichia coli, efflux defective DEL-tolC (JW5503). The assay is described as follows: MIC by broth microdilution. How it is done:
as §1, §2

In assay [4] the test system is Klebsiella pneumoniae (ATCC 43816). The experiment in a line: MIC by broth microdilution. The procedure: as §1, §2
In assay [5] the test system is Pseudomonas aeruginosa (ATCC 27853). The experiment in a line: MIC by broth microdilution. How it is done: as §1, §2
Assay [6] has as its system Pseudomonas aeruginosa, MDR (NTUH-974). The assay is described as follows: MIC by broth microdilution. The procedure: as §1, §2
Assay [7] relates to Enterococcus faecalis (ATCC29212). The assay is described as follows: MIC by broth microdilution. The conditions noted are these: Table 1, Example 1. The procedure: as §1
The test system of assay [8] is Enterococcus faecium, VanA (ATCC 700221). The experiment in a line: MIC by broth microdilution. The conditions noted are these: Table 1, Example 1. How it is done:
as §1

In assay [9] the test system is Staphylococcus aureus (ATCC 29213). The experiment in a line: MIC by broth microdilution. Particulars: Table 1, Example 1. How it is done:
as §1

Assay [10] deals with Staphylococcus aureus, MRSA (ATCC 33591). The experiment in a line: MIC by broth microdilution. The conditions noted are these: Table 1, Example 1. The procedure:
as §1

Assay [11] has as its system Streptococcus pneumoniae (ATCC 49619). The assay is described as follows: MIC by broth microdilution. Particulars: Table 1, Example 1. How it is done:
as §1

Assay [12] deals with Haemophilus influenzae (ATCC 49247). The experiment in a line: MIC by broth microdilution. Particulars: Table 2, Example 2. The procedure:
as §2

The subject of the next assay is Gram-negative bacteria. The assay is described as follows: MIC by broth microdilution, overall statement in words. Particulars: Example 1, statement in words. How it is done:
as §1, §2

Regarding `CN(C)Cc1ccc(/C=C/c2cc(/C=C/c3ccc(CN(C)C)cc3)cc(/C=C/c3ccc(CN(C)C)cc3)c2)cc1` [Compound 2], the MIC in assay [1] (Table 1, Example 1) was 16 µg/mL (≈ 28.8 µM); in assay [1] (Table 2, Example 2) it was 16 µg/mL (≈ 28.8 µM); in assay [2] (Table 1, Example 1), 8 µg/mL (≈ 14.4 µM); in assay [2] (Table 2, Example 2), 8 µg/mL (≈ 14.4 µM); in assay [3] (Table 1, Example 1), 4 µg/mL (≈ 7.2 µM); in [3] (Table 2, Example 2), 4 µg/mL (≈ 7.2 µM). Also, the MIC turned out to be 16 µg/mL (≈ 28.8 µM) in [4] (Table 1, Example 1); 16 µg/mL (≈ 28.8 µM) in [4] (Table 2, Example 2); 64 µg/mL (≈ 115 µM) in assay [5] (Table 1, Example 1); 64 µg/mL (≈ 115 µM) in assay [5] (Table 2, Example 2); 32 µg/mL (≈ 57.6 µM) in [6] (Table 1, Example 1); 32 µg/mL (≈ 57.6 µM) in [6] (Table 2, Example 2). Also, the MIC in [7] is 4 µg/mL (≈ 7.2 µM); in assay [8] it was 2 µg/mL (≈ 3.6 µM); in [9], 4 µg/mL (≈ 7.2 µM); in [10], 4 µg/mL (≈ 7.2 µM); in assay [11], 32 µg/mL (≈ 57.6 µM); in assay [12], over 128 µg/mL. Also, the “activity against Gram-negative bacteria” value with Gram-negative bacteria is “active”.
